This note sets out measurements from patent US20210112813A1, “HERBICIDAL COMPOSITION AND USE THEREOF” (NANTONG JIANGSHAN AGROCHEMICAL & CHEMICALS CO., LTD., priority 2019, published 2021).

Assay type in all cases: in vivo
Experiment [1] concerns Echinochloacrusgalli. Briefly: Field plot test, non-cultivated weeds, post-emergence stem and leaf spray. The note with it: Table 10, dose 100 ga.i./hm^2. On the procedure:
(§1) The present application also conducted a medicinal efficacy test on weeds on the formulation examples containing herbicide active component A and active component B by the field plot test method, and clarified the control effect of the composition on non-cultivated weeds.
(§2) According to the different components of different formulation examples, pre-emergence soil treatment, early post-emergence and post-emergence stem and leaf spray treatment were carried out respectively. The spraying device was Singapore Linong HD400 hand-operating knapsack sprayer (No. H17001), working pressure: […], spray rate: 640 mL/min, adjustable cone spraying nozzle (325787), spraying nozzle height: 0.5 m, spray width: 0.85 m, walking speed: about 16.7 m/min, and spray volume: […];

In experiment [2] the test system is Amaranthusretroflexus. The description is as above. The following applies: Table 10, dose 100 ga.i./hm^2. On the procedure:
as §1, §2

Experiment [3] concerns Bristlegrass. Described as above. The following applies: Table 10, dose 100 ga.i./hm^2. As to the method: as §1, §2
In experiment [4] the test system is Abutilon. Described as above. The following applies: Table 10, dose 100 ga.i./hm^2. On the procedure: as §1, §2
The subject of experiment [5] is Bristlegrass. Briefly: Greenhouse pot test (treatment timing not given, Tables 6 and 7), visual control effect, Gowing method. As to the method: (§3) In the present application, indoor combined action of the compound of herbicide active component A and B on weeds was measured to determine the combined effect of the composition on weeds, wherein the structure of the active component A was as follows:
(§4) The weed cultivation method was as follows: quantitative weed seeds abutilon and bristlegrass were respectively sown in a paper cup filled with nutrient soil with a diameter of 7 cm, and then cultivated in the greenhouse after covering the soil, suppressing and watering. The post-emergence stem and leaf treatment was performed when the grass weeds grew to 5-7 leaf stage, broad-leaved weeds grew to 6-8 leaf stage; the pre-emergence soil treatment was performed the second day after sowing, and the early post-emergence treatment was performed after sowing and before emergence; the experiment was repeated 3 times. After the treatment and drug solution naturally dried, the weeds were placed in the greenhouse to be managed according to conventional methods. According to the suppression or death of the weeds, a visual control effect investigation was conducted 30 days after the treatment. The application adopted the Gowing method to evaluate the combined effect of the proposed composition.
(§5) X—Weed control effect when the amount of herbicide component A is P;
(§6) Y—Weed control effect when the amount of herbicide component B is Q;
(§7) E0—Theoretical control effect when the amount of herbicide component A is […];
(§8) E—The measured control effect after the herbicide component A and the herbicide component B are mixed according to the above ratio.
(§9) When E−E0>10%, it is synergism; when E−E0<−10%, it is antagonism; when E−E0 value is between ±10%, it is addition.

Experiment [6] deals with Abutilon. As to the kind of experiment: Greenhouse pot test (treatment timing not given, Table 6), visual control effect, Gowing method. On the procedure: as §3, §4, §5, §6, §7, §8, §9
Experiment [7] deals with Bristlegrass. Briefly: Greenhouse pot test, post-emergence stem and leaf treatment, visual control effect 30 days after treatment, Gowing method. As to the method:
as §3, §4, §5, §6, §7, §8, §9

The subject of experiment [8] is Abutilon. The experiment is described as above. As to the method:
as §3, §4, §5, §6, §7, §8, §9

Experiment [9] relates to Bristlegrass. As to the kind of experiment: Greenhouse pot test, pre-emergence soil treatment, visual control effect 30 days after treatment, Gowing method. On the procedure:
as §3, §4, §5, §6, §7, §8, §9

In experiment [10] the test system is Abutilon. Described as above. On the procedure:
as §3, §4, §5, §6, §7, §8, §9

The subject of experiment [11] is Echinochloacrusgalli. Briefly: Field plot test, non-cultivated weeds, early post-emergence. On the procedure:
as §1, §2

In experiment [12] the test system is Amaranthusretroflexus. The description is as above. As to the method:
as §1, §2

Experiment [13] relates to Bristlegrass. Described as above. On the procedure: as §1, §2
The subject of experiment [14] is Abutilon. Described as above. As to the method:
as §1, §2

Experiment [15] has as its system Amaranthusretroflexus. As to the kind of experiment: Greenhouse pot test (treatment timing not given, Table 7), visual control effect, Gowing method.

As for `CP(=O)(O)CC[C@H](N)C(=O)O.N` [Glufosinate-P-ammonium], in the experiment on Echinochloacrusgalli [1], the “Control effect, Echinochloacrusgalli” value stood at 60. Moreover, the “Control effect, Amaranthusretroflexus” value with Amaranthusretroflexus [2] came out at 80. For the same compound, the “Control effect, Bristlegrass” value with Bristlegrass [3] was 45. For the same compound, in the experiment on Abutilon [4], the “Control effect, Abutilon” value stood at 70. Further, the “Measured value E” value amounted to 40% in the experiment with Bristlegrass [5] (Table 6, dose 30 ga.i./hm^2); 65% with Bristlegrass [5] (Table 6, dose 120 ga.i./hm^2); 45% in the experiment on Abutilon [6] (dose 30 ga.i./hm^2); 65% with Abutilon [6] (dose 120 ga.i./hm^2).

On to `CP(=O)(O)CCC(N)C(=O)O` (centres unmarked) [Glufosinate-ammonium], for which, in the experiment with Echinochloacrusgalli [1], the “Control effect, Echinochloacrusgalli” value was determined as 60. Moreover, the “Control effect, Amaranthusretroflexus” value with Amaranthusretroflexus [2] was found to be 70. Besides, the “Control effect, Bristlegrass” value in the experiment on Bristlegrass [3] is given as 50. The “Control effect, Abutilon” value in the experiment on Abutilon [4] stood at 65. The “Measured value E” value is listed as 30% with Bristlegrass [5] (Table 6, dose 30 ga.i./hm^2); 55% with Bristlegrass [5] (Table 6, dose 120 ga.i./hm^2); 40% in the experiment with Abutilon [6] (dose 30 ga.i./hm^2); 60% in the experiment with Abutilon [6] (dose 120 ga.i./hm^2).

As for `CCc1cnc(C2=NC(C)(C(C)C)C(=O)N2)c(C(=O)O)c1` (centres unmarked) [Imazethapyr], the “Measured value E” value in the experiment on Bristlegrass [7] (Table 5, dose 22.5 ga.i./hm^2) stood at 45%; with Bristlegrass [7] (Table 5, dose 45 ga.i./hm^2) it was 50%; in the experiment on Abutilon [8] (Table 5, dose 22.5 ga.i./hm^2), 10%; with Abutilon [8] (Table 5, dose 45 ga.i./hm^2) it was 20%; with Bristlegrass [9] (Table 4, dose 45 ga.i./hm^2), 30%; in the experiment with Bristlegrass [9] (Table 4, dose 90 ga.i./hm^2) it was 45%. For the same compound, the “Measured value E” value in the experiment on Abutilon [10] (Table 4, dose 45 ga.i./hm^2) was determined as 5%; in the experiment on Abutilon [10] (Table 4, dose 90 ga.i./hm^2), 25%. In the experiment with Echinochloacrusgalli [11] (Table 9, dose 100 ga.i./hm^2), the “Control effect, Echinochloacrusgalli” value was found to be 60. Also, in the experiment with Amaranthusretroflexus [12] (Table 9, dose 100 ga.i./hm^2), the “Control effect, Amaranthusretroflexus” value came out at 70. The “Control effect, Bristlegrass” value in the experiment on Bristlegrass [13] (Table 9, dose 100 ga.i./hm^2) is 50. In addition, in the experiment with Abutilon [14] (Table 9, dose 100 ga.i./hm^2), the “Control effect, Abutilon” value was 45.

`CCOc1cc(Oc2ccc(C(F)(F)F)cc2Cl)ccc1[N+](=O)[O-]` [Oxyfluorfen]: the “Control effect, Echinochloacrusgalli” value in the experiment on Echinochloacrusgalli [1] was 85. In addition, the “Control effect, Amaranthusretroflexus” value in the experiment on Amaranthusretroflexus [2] is listed as 80. Also, the “Control effect, Bristlegrass” value with Bristlegrass [3] was 65. In addition, the “Control effect, Abutilon” value with Abutilon [4] amounted to 80. In addition, the “Measured value E” value in the experiment on Bristlegrass [5] (Table 7, dose 22.5 ga.i./hm^2) is 15%; in the experiment on Bristlegrass [5] (Table 7, dose 45 ga.i./hm^2), 50%; in the experiment with Amaranthusretroflexus [15] (dose 22.5 ga.i./hm^2) it was 30%; with Amaranthusretroflexus [15] (dose 45 ga.i./hm^2), 60%.

For `Cn1nc(C(F)(F)F)c(CS(=O)(=O)C2=NOC(C)(C)C2)c1OC(F)F` [Pyroxasulfone], the “Measured value E” value worked out at 70% in the experiment with Bristlegrass [7] (Table 5, dose 45 ga.i./hm^2); 85% with Bristlegrass [7] (Table 5, dose 90 ga.i./hm^2); 50% in the experiment on Abutilon [8] (Table 5, dose 45 ga.i./hm^2); 65% in the experiment on Abutilon [8] (Table 5, dose 90 ga.i./hm^2); 60% with Bristlegrass [9] (Table 4, dose 90 ga.i./hm^2); 75% in the experiment on Bristlegrass [9] (Table 4, dose 180 ga.i./hm^2). The “Measured value E” value in the experiment on Abutilon [10] (Table 4, dose 90 ga.i./hm^2) came to 40%; in the experiment on Abutilon [10] (Table 4, dose 180 ga.i./hm^2) it was 55%. Further, the “Control effect, Echinochloacrusgalli” value with Echinochloacrusgalli [11] (Table 9, dose 200 ga.i./hm^2) came out at 15. In the experiment with Amaranthusretroflexus [12] (Table 9, dose 200 ga.i./hm^2), the “Control effect, Amaranthusretroflexus” value was 60. Also, the “Control effect, Bristlegrass” value in the experiment on Bristlegrass [13] (Table 9, dose 200 ga.i./hm^2) is 35. In the experiment on Abutilon [14] (Table 9, dose 200 ga.i./hm^2), the “Control effect, Abutilon” value was found to be 30.

Regarding Acetofluran, the “Control effect, Echinochloacrusgalli” value in the experiment on Echinochloacrusgalli [1] is given as 70. The “Control effect, Amaranthusretroflexus” value with Amaranthusretroflexus [2] was determined as 75. The “Control effect, Bristlegrass” value with Bristlegrass [3] amounted to 55. Moreover, the “Control effect, Abutilon” value with Abutilon [4] turned out to be 75. Besides, the “Measured value E” value with Bristlegrass [5] (Table 7, dose 60 ga.i./hm^2) is on record as 5%; in the experiment on Bristlegrass [5] (Table 7, dose 90 ga.i./hm^2), 30%; in the experiment with Amaranthusretroflexus [15] (dose 60 ga.i./hm^2), 35%; in the experiment on Amaranthusretroflexus [15] (dose 90 ga.i./hm^2), 55%.
